Test results taken from article PMC11006142, “A divergent protein kinase A regulatory subunit essential for morphogenesis of the human pathogen Leishmania” (PLOS Pathogens, 2024).

How the values were obtained:
[1] = target: T1, PKAR3 (protein kinase A regulatory subunit 3) (Leishmania donovani, UniProt A0A3S7X836); test: isothermal titration calorimetry (ITC), one-site model; format: binding
T1 construct: gene LdCL_340034800

[2] = target: subpellicular microtubules (SPMT) of L. donovani promastigotes, detected as β-tubulin (L. donovani (endogenous in promastigotes)); test: FRET or BRET; fixed L. donovani promastigotes labelled with primary antibodies and secondary antibodies with Alexa Fluor 568 (donor) and 647 (acceptor); corrected acceptor FRET (Youvan), confocal microscopy

T1 sequence (A0A3S7X836 entry or part of it): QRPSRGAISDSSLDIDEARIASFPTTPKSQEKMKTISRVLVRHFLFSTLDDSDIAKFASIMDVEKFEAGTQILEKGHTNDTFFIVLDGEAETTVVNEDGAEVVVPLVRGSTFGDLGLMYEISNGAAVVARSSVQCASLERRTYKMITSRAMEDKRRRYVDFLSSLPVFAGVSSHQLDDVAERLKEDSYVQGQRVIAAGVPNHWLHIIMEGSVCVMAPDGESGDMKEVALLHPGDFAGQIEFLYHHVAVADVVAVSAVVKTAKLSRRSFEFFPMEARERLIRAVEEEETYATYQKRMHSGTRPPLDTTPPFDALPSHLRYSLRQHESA

N#Cc1cn([C@@H]2O[C@H](CO)[C@@H](O)[C@H]2O)c2ncnc(O)c12 [7-CN-7-C-Ino, 7-cyano-7-deaza-inosine] was tested, and the Kd [1] was 1 nM.
N#Cc1cn([C@@H]2O[C@H](CO)[C@@H](O)[C@H]2O)c2ncnc(N)c12 [Toyo, Toyocamycin] was tested, and the Kd [1] was 3.8 nM.
In the case of “L. donovani PKAR3 lacking the N-terminal 90 amino acids (domain or fragment)”, the decrease of FRET-positive pixels per cell against PKAR3FL [2] is reported as 30%.
